{"source": "paper PMC12717099", "about": "“Peptidoglycan recruitment by a penicillin binding protein” (Nature Communications, 2025)", "type_in_all_cases": "binding, Enterococcus faecium", "key": {"PBP5:PenG complex (1:8)": {"system": "PBP5:PenG complex (1:8)", "assay": "NMR CSP titration of stem peptides into PenG-saturated PBP5", "conditions": "PBP5:PenG 1:8, then SP titration", "protocol": "Data was processed using Topspin 4.1.4 (Bruker) and analyzed using NMRFAM-SPARKY 1.3 and Poky (build number 20240829)[20],[21]. The sequence-specific backbone assignment of PBP5 is publicly available at BMRBID 51690.\nSPs (SP1 to SP7) were titrated into 0.5 mM (^2H,^15N)-labeled and 0.1 mM (^2H,^15N)/^13C ILV labeled PBP5 at molar ratios of 0:1, 5:1, 10:1, 20:1, 40:1, 60:1, and 80:1 (stem peptide/SP:PBP5; molar ratios). 2D [^1H,^15N] TROSY or 2D [^1H,^13C] HMQC spectra were recorded for each titration point. SPs were solubilized in NMR buffer. Chemical shift perturbations (Δδ) between PBP5 and SP bound PBP5 spectra were calculated using Eq. 1,1 Δδppm=ΔδH^2+ΔδX/Y^2 where, X is ^15N or ^13C and Y is the constant i.e., 10 for ^15N and 4 for ^13C.\nResidues with significant CSPs were identified by calculating the standard deviation of all CSPs (σ), then excluding any CSPs larger than average+2σ, recalculating σ as a new corrected σ0, and then repetitively removing CSPs above 2σ0 until no additional CSPs can be removed. CSPs above ≥2σ2 was the statistical threshold for ^1H/^15N backbone CSP analysis and ≥2xσ1 for ^1H/^13C methyl ILV data for the interaction of SP1 with PBP5. The same threshold values were used for all other peptides to allow for direct comparison with the SP1/PBP5 interaction. […]"}, "PBP5": {"system": "PBP5", "assay": "1D 1H STD NMR of stem peptides with PBP5", "conditions": "for STD % to SP1: normalised to highest SP1:PBP5 value; for STD amplification factor: protein:peptide 1:100, 2 s saturation, 308 K", "description": "(§1) Total saturation time for STD measurements was 2 s.\n(§2) Overlapped peaks were completely excluded from the analysis."}, "PBP5:PenG complex": {"system": "PBP5:PenG complex", "assay": "1D 1H STD NMR of stem peptides with PBP5:PenG", "conditions": "for STD amplification factor: PenG-saturated PBP5, 2 s saturation", "description": "as §1, §2"}}}
{"substance": "D-Lac-L-Ala-D-iGln-L-Lys(D-iAsn) [SP2]", "values": [{"measurement": "CSPs in presence vs absence of penicillin, in words", "setting": "PBP5:PenG complex (1:8)", "value": "nearly identical"}, {"measurement": "STD amplification factor as fraction of highest SP1:PBP5 value", "setting": "PBP5; 1H DLacβ", "value": 0.3338}, {"measurement": "STD % to SP1", "setting": "PBP5; 1H DLacβ", "value": 33.3802, "unit": "%"}, {"measurement": "STD amplification factor", "setting": "PBP5; 1H DLacβ", "value": 8.982}, {"measurement": "STD amplification factor as fraction of highest SP1:PBP5 value", "setting": "PBP5; 1H DQ2β (first listed)", "value": 0.6658}, {"measurement": "STD % to SP1", "setting": "PBP5; 1H DQ2β (first listed)", "value": 66.5792, "unit": "%"}, {"measurement": "STD amplification factor", "setting": "PBP5; 1H DQ2β (first listed)", "value": 17.9154}, {"measurement": "STD amplification factor as fraction of highest SP1:PBP5 value", "setting": "PBP5; 1H DQ2β (second listed)", "value": 0.8494}, {"measurement": "STD % to SP1", "setting": "PBP5; 1H DQ2β (second listed)", "value": 84.9407, "unit": "%"}, {"measurement": "STD amplification factor", "setting": "PBP5; 1H DQ2β (second listed)", "value": 22.8562}, {"measurement": "STD amplification factor as fraction of highest SP1:PBP5 value", "setting": "PBP5; 1H DQ2γ", "value": 0.2468}, {"measurement": "STD % to SP1", "setting": "PBP5; 1H DQ2γ", "value": 24.6819, "unit": "%"}, {"measurement": "STD amplification factor", "setting": "PBP5; 1H DQ2γ", "value": 6.6415}, {"measurement": "STD amplification factor as fraction of highest SP1:PBP5 value", "setting": "PBP5; 1H K3α", "value": 0.4302}, {"measurement": "STD % to SP1", "setting": "PBP5; 1H K3α", "value": 43.0201, "unit": "%"}, {"measurement": "STD amplification factor", "setting": "PBP5; 1H K3α", "value": 11.576}, {"measurement": "STD amplification factor as fraction of highest SP1:PBP5 value", "setting": "PBP5; 1H K3β", "value": 0.9507}, {"measurement": "STD % to SP1", "setting": "PBP5; 1H K3β", "value": 95.0654, "unit": "%"}, {"measurement": "STD amplification factor", "setting": "PBP5; 1H K3β", "value": 25.5806}, {"measurement": "STD amplification factor as fraction of highest SP1:PBP5 value", "setting": "PBP5; 1H K3γ", "value": 0.5906}, {"measurement": "STD % to SP1", "setting": "PBP5; 1H K3γ", "value": 59.0623, "unit": "%"}, {"measurement": "STD amplification factor", "setting": "PBP5; 1H K3γ", "value": 15.8927}, {"measurement": "STD amplification factor as fraction of highest SP1:PBP5 value", "setting": "PBP5; 1H K3δ", "value": 0.6971}, {"measurement": "STD % to SP1", "setting": "PBP5; 1H K3δ", "value": 69.7058, "unit": "%"}, {"measurement": "STD amplification factor", "setting": "PBP5; 1H K3δ", "value": 18.7567}, {"measurement": "STD amplification factor as fraction of highest SP1:PBP5 value", "setting": "PBP5; 1H K3ε", "value": 0.1751}, {"measurement": "STD % to SP1", "setting": "PBP5; 1H K3ε", "value": 17.5055, "unit": "%"}, {"measurement": "STD amplification factor", "setting": "PBP5; 1H K3ε", "value": 4.71}, {"measurement": "STD amplification factor as fraction of highest SP1:PBP5 value", "setting": "PBP5; 1H LA1α", "value": 0.3317}, {"measurement": "STD % to SP1", "setting": "PBP5; 1H LA1α", "value": 33.1655, "unit": "%"}, {"measurement": "STD amplification factor", "setting": "PBP5; 1H LA1α", "value": 8.924}, {"measurement": "STD amplification factor as fraction of highest SP1:PBP5 value", "setting": "PBP5; 1H LA1β", "value": 0.3463}, {"measurement": "STD % to SP1", "setting": "PBP5; 1H LA1β", "value": 34.6271, "unit": "%"}, {"measurement": "STD amplification factor", "setting": "PBP5; 1H LA1β", "value": 9.318}, {"measurement": "STD amplification factor as fraction of highest SP1:PBP5 value", "setting": "PBP5; 1H iNα,DQ2α", "value": 0.2066}, {"measurement": "STD % to SP1", "setting": "PBP5; 1H iNα,DQ2α", "value": 20.663, "unit": "%"}, {"measurement": "STD amplification factor", "setting": "PBP5; 1H iNα,DQ2α", "value": 5.56}, {"measurement": "STD amplification factor as fraction of highest SP1:PBP5 value", "setting": "PBP5; 1H iNβ", "value": 0.2856}, {"measurement": "STD % to SP1", "setting": "PBP5; 1H iNβ", "value": 28.5568, "unit": "%"}, {"measurement": "STD amplification factor", "setting": "PBP5; 1H iNβ", "value": 7.684}, {"measurement": "STD amplification factor, ref to SP1 (fraction)", "setting": "PBP5:PenG complex; 1H DLacβ", "value": 0.3213}, {"measurement": "STD, ref to SP1 (percent)", "setting": "PBP5:PenG complex; 1H DLacβ", "value": 32.1311}, {"measurement": "STD amplification factor", "setting": "PBP5:PenG complex; 1H DLacβ", "value": 8.646}, {"measurement": "STD amplification factor, ref to SP1 (fraction)", "setting": "PBP5:PenG complex; 1H DQ2β (first listed)", "value": 0.7026}, {"measurement": "STD, ref to SP1 (percent)", "setting": "PBP5:PenG complex; 1H DQ2β (first listed)", "value": 70.2576}, {"measurement": "STD amplification factor", "setting": "PBP5:PenG complex; 1H DQ2β (first listed)", "value": 18.9052}, {"measurement": "STD amplification factor, ref to SP1 (fraction)", "setting": "PBP5:PenG complex; 1H DQ2β (second listed)", "value": 0.9395}, {"measurement": "STD, ref to SP1 (percent)", "setting": "PBP5:PenG complex; 1H DQ2β (second listed)", "value": 93.9523}, {"measurement": "STD amplification factor", "setting": "PBP5:PenG complex; 1H DQ2β (second listed)", "value": 25.2811}, {"measurement": "STD amplification factor, ref to SP1 (fraction)", "setting": "PBP5:PenG complex; 1H DQ2γ", "value": 0.3025}, {"measurement": "STD, ref to SP1 (percent)", "setting": "PBP5:PenG complex; 1H DQ2γ", "value": 30.2481}, {"measurement": "STD amplification factor", "setting": "PBP5:PenG complex; 1H DQ2γ", "value": 8.139}, {"measurement": "STD amplification factor, ref to SP1 (fraction)", "setting": "PBP5:PenG complex; 1H K3α", "value": 0.5268}, {"measurement": "STD, ref to SP1 (percent)", "setting": "PBP5:PenG complex; 1H K3α", "value": 52.6829}, {"measurement": "STD amplification factor", "setting": "PBP5:PenG complex; 1H K3α", "value": 14.1761}, {"measurement": "STD amplification factor, ref to SP1 (fraction)", "setting": "PBP5:PenG complex; 1H K3β", "value": 1.026}, {"measurement": "STD, ref to SP1 (percent)", "setting": "PBP5:PenG complex; 1H K3β", "value": 102.583}, {"measurement": "STD amplification factor", "setting": "PBP5:PenG complex; 1H K3β", "value": 27.6034}, {"measurement": "STD amplification factor, ref to SP1 (fraction)", "setting": "PBP5:PenG complex; 1H K3γ", "value": 0.589}, {"measurement": "STD, ref to SP1 (percent)", "setting": "PBP5:PenG complex; 1H K3γ", "value": 58.9034}, {"measurement": "STD amplification factor", "setting": "PBP5:PenG complex; 1H K3γ", "value": 15.8499}, {"measurement": "STD amplification factor, ref to SP1 (fraction)", "setting": "PBP5:PenG complex; 1H K3δ", "value": 0.6424}, {"measurement": "STD, ref to SP1 (percent)", "setting": "PBP5:PenG complex; 1H K3δ", "value": 64.2392}, {"measurement": "STD amplification factor", "setting": "PBP5:PenG complex; 1H K3δ", "value": 17.2857}, {"measurement": "STD amplification factor, ref to SP1 (fraction)", "setting": "PBP5:PenG complex; 1H K3ε", "value": 0.1756}, {"measurement": "STD, ref to SP1 (percent)", "setting": "PBP5:PenG complex; 1H K3ε", "value": 17.5552}, {"measurement": "STD amplification factor", "setting": "PBP5:PenG complex; 1H K3ε", "value": 4.724}, {"measurement": "STD amplification factor, ref to SP1 (fraction)", "setting": "PBP5:PenG complex; 1H LA1α", "value": 0.4522}, {"measurement": "STD, ref to SP1 (percent)", "setting": "PBP5:PenG complex; 1H LA1α", "value": 45.2214}, {"measurement": "STD amplification factor", "setting": "PBP5:PenG complex; 1H LA1α", "value": 12.1683}, {"measurement": "STD amplification factor, ref to SP1 (fraction)", "setting": "PBP5:PenG complex; 1H LA1β", "value": 0.3642}, {"measurement": "STD, ref to SP1 (percent)", "setting": "PBP5:PenG complex; 1H LA1β", "value": 36.4217}, {"measurement": "STD amplification factor", "setting": "PBP5:PenG complex; 1H LA1β", "value": 9.8}, {"measurement": "STD amplification factor, ref to SP1 (fraction)", "setting": "PBP5:PenG complex; 1H iNα,DQ2α", "value": 0.2492}, {"measurement": "STD, ref to SP1 (percent)", "setting": "PBP5:PenG complex; 1H iNα,DQ2α", "value": 24.9206}, {"measurement": "STD amplification factor", "setting": "PBP5:PenG complex; 1H iNα,DQ2α", "value": 6.706}, {"measurement": "STD amplification factor, ref to SP1 (fraction)", "setting": "PBP5:PenG complex; 1H iNβ", "value": 0.3249}, {"measurement": "STD, ref to SP1 (percent)", "setting": "PBP5:PenG complex; 1H iNβ", "value": 32.4924}, {"measurement": "STD amplification factor", "setting": "PBP5:PenG complex; 1H iNβ", "value": 8.743}]}
